These results are taken from patent publication US20250018068A1, “4H-IMIDAZO[1,5-B]PYRAZOLE DERIVATIVES FOR DIAGNOSIS” (AC IMMUNE SA, priority 2021, published 2025).

Test [1] addresses T1, PD brain-derived alpha-synuclein aggregates (Homo sapiens, UniProt P37840).
T1 construct: from tissue; host or cells: human PD donor brain, sarkosyl-insoluble pellet
Briefly: Micro-radiobinding competition assay for the determination of binding affinity. To be noted: human PD brain-derived alpha-synuclein aggregates; for inhibition at 0.1 µM: 100 nM non-radiolabelled compound, read-out: Micro-radiobinding competition assay Competition at 100 nM (%); for inhibition at 0.1 µM / inhibition at 1 µM: competition over tritiated [3H]-Example-1 ligand; for inhibition at 1 µM: 1 μM non-radiolabelled compound, read-out: Micro-radiobinding competition assay Competition at 1 μM (%). As for the experimental part:
The procedure was adapted from the protocol described in Spillantini et al., 1998. Frozen tissue blocks from PD donors were thawed on ice and homogenized using a glass dounce homogenizer. The homogenate was then centrifuged at 11,000×g (12,700 RPM) in an ultracentrifuge (Beckman, XL100K) for 20 minutes at 4° C. using a pre-cooled 70.1 rotor (Beckman, 342184). Pellets were resuspended in extraction buffer [10 mM Tris-HCl pH 7.4, 10% sucrose, […], 1% protease inhibitor (Calbiochem 539131), 1 mM EGTA, 1% phosphatase inhibitor (Sigma P5726 and P0044)] and centrifuged at 15,000×g (14,800 RPM, a 70.1 Ti rotor) for 20 minutes at 4° C. Pellets were discarded and sarkosyl (20% stock solution, Sigma L7414) was added to the supernatants to a final concentration of 1% at room temperature for one hour. This solution was then centrifuged at 100,000×g (38,000 RPM, 70.1 Ti rotor) for one hour at 4° C. Pellets containing enriched alpha-synuclein aggregates were resuspended in PBS and stored at −80° C. until use.
PD brain-derived alpha-synuclein aggregates were spotted onto microarray slides. The slides were incubated with [^3H]-alpha-synuclein reference at 6 nM or 20 nM and the example compounds (non-radiolabelled) at 1 μM and 100 nM. In some cases, the non-radiolabelled example compounds were further assessed for a range of different concentrations, varying from 0.05 nM to 2 μM. After incubation, slides were washed and scanned by a real-time autoradiography system (BeaQuant, ai4R). Quantification of the signal was performed by using the Beamage image analysis software (ai4R). Non-specific signal was determined with an excess of non-radiolabelled Example-1 (2 μM) and specific binding was calculated by subtracting the non-specific signal from the total signal. Competition was calculated as percent, where 0% was defined as the specific binding in the presence of vehicle and 100% as the values obtained in the presence of excess of the non-radiolabelled Example-1. Ki values were calculated in GraphPad Prism7 by applying a nonlinear regression curve fit using a one site, specific binding model. All measurements were performed with at least two technical replicates. For compounds tested in more than one experiment, the mean of the replicates or Ki values in independent experiments is reported.
Results: Example compounds were assessed for their potency to compete with the binding of [^3H]-reference alpha-synuclein ligand to PD patient brain-derived alpha-synuclein aggregates. Results of the micro-radiobinding competition assay for the example compounds tested are shown in Table 3 as: % competition at 1 μM and 100 nM.
Table 3: Assessment of binding affinity by micro-radiobinding competition assay on human PD brain-derived alpha-synuclein aggregates. Percent (%) competition over the tritiated [^3H]-Example-1 ligand in the presence of 1 μM and 100 nM of example compounds 1-9. Ki values are also shown for selected example compounds. *, mean of Ki values in two independent experiments using PD brain-derived homogenates from two different donors.

The target of test [2] is T2, Abeta pathological aggregates (Homo sapiens, UniProt P05067).
T2 construct: Abeta pathological aggregates present in the human AD brain homogenates; from tissue; host or cells: human AD donor brain, Triton/sucrose-insoluble fraction
Kind of test: Radiobinding competition assay on AD brain homogenates, displacement of [3H]-Abeta-Ref. Format: binding. As for the experimental part: The procedure was adapted from the protocol described in Bagchi et al., 2013. Frozen tissue blocks from AD donors were thawed on ice and homogenized in high salt buffer (50 mM Tris-HCl pH 7.5, 0.75M NaCl, 5 mM EDTA) supplemented with protease inhibitors (Complete; Roche 11697498001) at 4° C. using a glass Dounce homogenizer. The homogenate was centrifuged at 100,000×g (38,000 RPM) in an ultracentrifuge (Beckman, XL100K) for one hour at 4° C. using a pre-cooled 70.1 rotor (Beckman, 342184). Pellets were resuspended in high salt buffer supplemented with 1% Triton X-100 and homogenized at 4° C. using a glass Dounce homogenizer. […]
A fixed concentration of AD insoluble fraction was incubated with a tritiated reference Abeta ligand ([^3H]-Abeta-Ref) at 10 nM and increasing concentrations of non-radiolabelled example compound 1 in the range of […] to 2 μM for two hours at RT. […] The filters were analyzed on a Microbeta2 scintillation counter (PerkinElmer). Non-specific signal was determined with an excess of non-radiolabelled reference ligand (2 μM) and specific binding was calculated by subtracting the non-specific signal from the total signal. Competition was calculated as percent, where 0% was defined as the specific binding in the presence of vehicle and 100% as the values obtained in the presence of excess of the non-radiolabelled reference ligand. […]

A word on the Ki: it is the equilibrium dissociation constant of an inhibitor or competing ligand from its target.

Counter-ions that a name gives are not always drawn.

T2 sequence (P05067 672-713 limits assumed): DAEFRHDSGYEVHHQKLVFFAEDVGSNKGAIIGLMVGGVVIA

Take `O=C1N(c2cccnc2)Cc2cc(-c3ccc(N4CC[C@H](F)C4)nc3)nn21` [Example 1, (S)-2-(6-(3-fluoropyrrolidin-1-yl)pyridin-3-yl)-5-(pyridin-3-yl)-4H-imidazo[1,5-b]pyrazol-6(5H)-one hydrochloride]: the inhibition at 0.1 µM in test [1] turned out to be 56%. Also, the inhibition at 1 µM in test [1] worked out at 91%. Besides, the inhibitory constant (Ki) in test [1] (* = mean of two independent experiments, two donors) came out at 0.069 µM; in test [2] (displacement of [3H]-Abeta-Ref (10 nM) on AD brain-derived homogenates) it was 0.36 µM. The “Selectivity for alpha-synuclein over Abeta pathological aggregates” value in test [2] (human AD brain homogenates versus PD brain binding affinity) is recorded as “good selectivity”.
In the case of `O=C1N(c2ccns2)Cc2cc(-c3ccc(N4CC[C@H](F)C4)nc3)nn21` [Example 21, (S)-2-(6-(3-fluoropyrrolidin-1-yl)pyridin-3-yl)-5-(isothiazol-5-yl)-4,5-dihydro-6H-imidazo[1,5-b]pyrazol-6-one hydrogen chloride salt], in test [1], the inhibition at 0.1 µM was 82% and the inhibition at 1 µM was found to be 90%.
As to `Cn1cc(N2Cc3cc(-c4ccc(OCCF)nc4)nn3C2=O)cn1` [Example 22, 2-(6-(2-fluoroethoxy)pyridin-3-yl)-5-(1-methyl-1H-pyrazol-4-yl)-4,5-dihydro-6H-imidazo[1,5-b]pyrazol-6-one hydrogen chloride salt], in test [1], the inhibition at 0.1 µM was 45% and the inhibition at 1 µM was 89%.
The matching figures for `O=C1N(c2cncs2)Cc2cc(-c3ccc(OCCF)nc3)nn21` [Example 23, 2-(6-(2-fluoroethoxy)pyridin-3-yl)-5-(thiazol-5-yl)-4,5-dihydro-6H-imidazo [1,5-b] pyrazol-6-one hydrogen chloride salt]: 31% and 82%.
